PubChem BioAssay (NCI)
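Exposure lasted 48 hours, with cells grown in 96-well plates and compounds tested at five concentrations. TGI: concentration producing complete growth inhibition.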 *1 amine or outer side, *2 acyl side, *3 side chain or, on linkers, in order; H or OH if unused. Where a SMILES comes first, the peptide text is derived from it. Bridges are numbered along the chain shown (N, C = ends). Roman numbers before positions name the chains, in order. [ ]: non-standard residue; d: D form. ξ: configuration not given here. X54 = N=C(N)NCCC[C@@H](NC(=N)CCCCCCC(=N)N[C@H](CCCNC(=N)N)C(=O)[*:2])C(=O)[*:1]; dIgl = N[C@@H](C(=O)O)C1Cc2ccccc2C1; Hyp = O=C(O)[C@@H]1C[C@@H](O)CN1; ξIgl = NC(C(=O)O)C1Cc2ccccc2C1; ξOic = O=C(O)C1CC2CCCCC2N1; ξR = N=C(N)NCCCC(N)C(=O)O; ξP = O=C(O)C1CCCN1; ξS = NC(CO)C(=O)O

Tests used:
Assay in all cases: NCI tumour cell line growth inhibition, 48 h
[1] = test system: CAKI-1 renal
[2] = test system: HOP-62 NSCLC
[3] = test system: KM12 colon
[4] = test system: NCI-H226 lung
[5] = test system: NCI-H460 lung
[6] = test system: OVCAR-5 ovarian
[7] = test system: PC-3 prostate
[8] = test system: SF-539 CNS
[9] = test system: TK-10 renal
[10] = test system: UACC-257 melanoma

Compound	TGI [1]	TGI [2]	TGI [3]	TGI [4]	TGI [5]	TGI [6]	TGI [7]	TGI [8]	TGI [9]	TGI [10]
O=C1c2cc(I)ccc2N2CCN=C2N1Cc1ccccc1	> 100 µM	> 100 µM	> 100 µM	> 100 µM	> 100 µM	> 100 µM	> 100 µM	> 100 µM	> 100 µM	> 100 µM
CCC(=O)Nc1cccc(N=Cc2ccc(OC(=O)/C=C\c3ccccc3)cc2)c1	> 75 µM	> 75 µM	> 75 µM	> 75 µM	> 75 µM	> 75 µM	> 75 µM	> 75 µM	> 75 µM	> 75 µM
O=c1cc(-c2ccccc2)[nH]c2ncccc12	> 100 µM	> 100 µM	15.7 µM		> 52.1 µM	> 100 µM	> 27.9 µM		> 100 µM	> 100 µM
COc1ccc(-n2c(SC(CN3CCOCC3)CN3CCCC3=O)nc3ccccc3c2=O)cc1 (stereo unspecified)	> 100 µM		> 100 µM	> 100 µM	> 100 µM	> 100 µM	> 100 µM	> 100 µM	> 100 µM	> 100 µM
Cc1nn(C(=O)c2ccccc2O)c2c1C(c1ccc(O)cc1O)SC(N)=N2 (stereo unspecified)	> 10 µM	> 10 µM	> 10 µM	3.82 µM	> 10 µM	3.91 µM	> 10 µM	> 10 µM	> 10 µM	
N#Cc1c(N)oc(-c2ccc([N+](=O)[O-])cc2)c1C#N	54.7 µM	73.5 µM	> 100 µM	46.5 µM		> 100 µM	56.9 µM	48.3 µM	76.8 µM	62 µM
Cc1cc2cc3cc(C)c(N)cc3nc2cc1N	2.64 µM	1.32 µM	2.03 µM	11.7 µM	1.21 µM	2.65 µM	6.84 µM		1.62 µM	8.57 µM
CCOC(=O)/C=C/C(=O)O/C=C/[N+](=O)[O-]	78.1 µM	> 100 µM	> 100 µM	> 100 µM	> 100 µM	> 100 µM		> 100 µM	> 100 µM	> 100 µM
O=c1c2c3c(sc2nc2n1N=CN(c1ccccc1)C2)CCCC3	> 100 µM	> 100 µM	> 100 µM	> 100 µM	> 100 µM	> 100 µM	> 100 µM		> 100 µM	> 100 µM
Cc1cc(=O)oc2cc(OCCCOc3ccc4c(C)cc(=O)oc4c3)ccc12		> 100 µM		> 100 µM	> 100 µM			> 100 µM	> 100 µM	> 100 µM
CC(C)=CC1C(C(=O)Oc2ccccc2C(C)C)C1(C)C (stereo unspecified)	> 100 µM	85.5 µM	38.9 µM		47 µM	48.8 µM			96 µM	44.2 µM
O=C(CN1CCCC1=O)CS(=O)(=O)c1ccccc1		> 100 µM	> 100 µM	> 100 µM	> 100 µM	> 100 µM	> 100 µM	> 100 µM	> 100 µM	> 100 µM
Nn1c(Nc2ccc(S(N)(=O)=O)cc2)nnc(/C=C/c2c(O)ccc3ccccc23)c1=O	49.6 µM	56.7 µM	52.2 µM		96.2 µM	56.1 µM	> 100 µM	> 100 µM		92.8 µM
Cc1ccc(Cc2cc(N3CCN(c4cccc(Cl)c4)CC3)nnc2C)cc1	> 100 µM	> 100 µM	> 100 µM		> 100 µM	> 100 µM	> 100 µM	> 100 µM	> 100 µM	> 100 µM
Cc1nnc(N)nc1/C=C\c1ccc(Cl)cc1Cl	> 100 µM	36.3 µM	32.6 µM	46.2 µM	42.8 µM	> 100 µM	> 100 µM		> 100 µM	> 100 µM
Cn1c(-c2ccc(-c3cc(-c4cccs4)c(-c4cccs4)n3C)cc2)cc(-c2cccs2)c1-c1cccs1	> 100 µM	> 100 µM	> 100 µM	> 100 µM	> 100 µM		> 100 µM	> 100 µM	> 100 µM	> 100 µM
COC1=C[C@]2(CCC(=O)O2)[C@@H]2Cc3ccccc3[C@H](O)[C@@H]2C1=O	> 100 µM	> 100 µM	> 100 µM	> 100 µM	> 100 µM	> 100 µM	> 100 µM		> 100 µM	62 µM
COC(=O)[C@H](CC(C)C)NC(=O)[C@H](Cc1ccccc1)N1CC2C=CC1C2 (stereo partly specified)	> 100 µM	> 100 µM	> 100 µM	> 100 µM	> 100 µM	> 100 µM		> 100 µM	> 100 µM	> 100 µM
COC(=O)c1c(O)ccc2c1c1cc3ccccc3cc1n2Cc1cc(OC)cc(OC)c1	> 28.4 µM	> 100 µM	> 27.1 µM	> 100 µM	> 100 µM	> 100 µM	> 32.6 µM		> 100 µM	> 100 µM
O=C1C=C(Nc2ccccc2C(=O)CC(=O)C(=O)Nc2ccc(Cl)cc2)c2ccccc2C1=O	> 83.4 µM	44.5 µM	54.6 µM	> 56.6 µM	34.7 µM	35.6 µM		50.2 µM	> 100 µM	21.7 µM
CC#C[C@]1(O)CCC2[C@@H]3CCC4=CC(=O)CCC4=C3[C@@H](c3ccc(N(C)C)cc3)C[C@@]21C (stereo partly specified)	33 µM	50.3 µM	65.2 µM		28.3 µM	79.1 µM	88.7 µM	28.5 µM	43.1 µM	36.5 µM
N=C(N)NCCCC(NC(=O)C1CC2CCCCC2N1C(=O)[C@H](NC(=O)C(CO)NC(=O)C(NC(=O)CNC(=O)[C@@H]1C[C@@H](O)CN1C(=O)C1CCCN1C(=O)C(CCCNC(=N)N)NC(=O)[C@@H](CCCNC(=N)N)NC(=N)CCCCCCC(=N)N[C@H](CCCNC(=N)N)C(=O)NC(CCCNC(=N)N)C(=O)N1CCCC1C(=O)N1C[C@H](O)C[C@H]1C(=O)NCC(=O)NC(C(=O)NC(CO)C(=O)N[C@@H](C(=O)N1C(C(=O)NC(CCCNC(=N)N)C(=O)O)CC2CCCCC21)C1Cc2ccccc2C1)C1Cc2ccccc2C1)C1Cc2ccccc2C1)C1Cc2ccccc2C1)C(=O)O (stereo partly specified) (I: [ξR][ξP][Hyp]G[ξIgl][ξS][dIgl][ξOic][ξR]-OH / II: [ξR][ξP][Hyp]G[ξIgl][ξS][dIgl][ξOic][ξR]-OH; linker I:N-II:N via X54)	3.71 µM	5.64 µM	4.13 µM		3.87 µM	> 10 µM	3.59 µM	5.32 µM	8.95 µM	> 10 µM

Compound	TGI [1]	TGI [2]	TGI [3]	TGI [4]	TGI [5]	TGI [6]	TGI [7]	TGI [8]	TGI [9]	TGI [10]
CC1=NN(C(=O)Cc2ccccc2)C(=O)/C1=C\c1ccc([N+](=O)[O-])cc1	> 100 µM	> 100 µM	> 100 µM	> 100 µM	> 100 µM	> 100 µM		> 100 µM	> 100 µM	> 100 µM
CC(C)(C)N/N=C(\C(=O)Nc1cccc(Cl)c1)C1C(=O)Nc2ccccc2S1=O (stereo unspecified)	> 100 µM	> 100 µM	> 100 µM	> 100 µM	> 100 µM			> 100 µM	> 100 µM	> 100 µM
CN(C)CN1CSC(=S)N(CN(C)C)C1	> 100 µM	> 100 µM	> 100 µM	> 100 µM	> 100 µM	> 100 µM	42.7 µM		> 100 µM	> 100 µM
COc1cccc2c1C(=O)c1c(O)c3c(c(O)c1C2=O)C[C@@](O)(C(C)=O)CC3S(=O)(=O)O (stereo partly specified)	> 100 µM	> 100 µM	> 100 µM	> 100 µM	> 100 µM	> 100 µM		> 100 µM	> 100 µM	> 100 µM
Clc1cc(-c2ccccc2)nc(Nc2nc3ccccc3[nH]2)n1	3.95 µM		> 100 µM	> 100 µM	93.7 µM	> 100 µM	> 100 µM	> 100 µM	> 100 µM	44 µM
COc1ccc2c(c1)Oc1cc(O)ccc1[C@H]2c1ccccc1C(=O)NC(C)c1ccccc1 (stereo partly specified)	33.7 µM	44.6 µM	36.5 µM	38.8 µM	26.8 µM	29.4 µM		29.7 µM	50.4 µM	37.3 µM
O=C(Cc1nc2ccc(C(=O)c3ccccc3)cc2[nH]c1=O)C(=O)Nc1nc2ccccc2[nH]1	> 100 µM	> 100 µM	> 100 µM		> 100 µM			> 100 µM	> 100 µM	> 100 µM
Fc1ccc(-c2sc(-c3ccsc3)cc2Cc2ccsc2)cc1	> 10 µM	> 10 µM	> 10 µM				> 10 µM		> 10 µM	> 10 µM
COc1cc(CC(C)=O)cc(OC)c1		> 100 µM		> 100 µM	> 100 µM	> 100 µM	> 100 µM		> 100 µM	> 100 µM
CC(=O)OCC1OC(N2C(=O)NC(=O)C3C=C4CCCCC4=CC32)CC1OC(C)=O (stereo unspecified)		> 100 µM	> 100 µM	> 100 µM	> 100 µM	> 100 µM	> 100 µM	> 100 µM	> 100 µM	> 100 µM
COc1cc(C2c3cc4c(cc3OC(NNC(N)=O)C2C)OCO4)cc(OC)c1OC (stereo unspecified)	> 100 µM		> 100 µM	3.7 µM	> 89.8 µM	> 100 µM	> 100 µM	0.165 µM	> 100 µM	> 100 µM
O=C(c1ccccc1)N1CCN(C(=S)NC2CCCCC2)C1=S	62.4 µM	37.3 µM	30.9 µM	36.1 µM	49.5 µM	52.5 µM		27.7 µM	62 µM	38.6 µM
CCC12CCCN(Cc3ccccc3)C1c1c(n(C)c3ccccc13)C(CO)C2 (stereo unspecified)	> 257 µM	73.6 µM	89.4 µM	104 µM	73.8 µM	75.6 µM		73.9 µM	246 µM	95.1 µM
COC(C/C(=C/CO[Si](C(C)C)(C(C)C)C(C)C)C(=O)N(C(=O)OC(C)(C)C)c1ccccc1I)OC	> 100 µM	> 100 µM	> 100 µM	> 100 µM	> 100 µM	> 100 µM	77.4 µM		> 100 µM	> 100 µM
Cc1ccc(S(=O)(=O)N2CCC[C@@H]2C(=O)O[C@@H]2CCC3CC=CC32)cc1 (stereo partly specified)		97.2 µM	> 100 µM	68.3 µM	> 100 µM	> 100 µM	69.6 µM	> 100 µM	> 100 µM	64.4 µM
CCc1cc(C)cc2[n+]1CC=C2	> 100 µM	51.3 µM	> 100 µM	80.8 µM	93.9 µM	56.6 µM		95.6 µM	> 100 µM	39.7 µM
COc1cccc2c1NC(=O)Cc1c-2[nH]c2ccccc12	> 100 µM	> 100 µM	> 100 µM	> 100 µM	> 100 µM	> 100 µM	> 100 µM	> 100 µM	> 100 µM	
Cn1c(-c2ccc[se]2)ccc1-c1ccc(C=O)[se]1	0.738 µM	35.3 µM	> 100 µM	2.3 µM	24.2 µM		> 100 µM	23 µM	0.439 µM	3.5 µM
COc1cc(C2S/C(=C/c3ccccc3)C(=O)N2Cc2ccccc2)cc(OC)c1OC (stereo unspecified)	> 100 µM	> 100 µM	> 100 µM	> 100 µM		> 100 µM	> 100 µM		> 100 µM	> 100 µM
Cc1ccc(/C=C/C(=O)Oc2ccc(/C=C3\CCC/C(=C\c4ccc(OC(=O)/C=C/c5ccc(C)cc5)cc4)C3=O)cc2)cc1	> 100 µM	> 100 µM	> 100 µM		> 100 µM	> 100 µM	> 100 µM	> 100 µM	> 100 µM	> 100 µM
Nc1nc(NCCOCP(=O)(O)O)c([N+](=O)[O-])c(=O)[nH]1		> 100 µM	> 100 µM	> 100 µM	> 100 µM			> 100 µM	> 100 µM	> 100 µM
